# Experimental data: patent publication US11926826B2, “Twist signaling inhibitor compositions and methods of using the same” (City of Hope, priority 2016, dated 2024)
# Columns and labels:
# [1] = tested on: TWIST1; assay: TWIST1 knockdown after Lipofectamine 2000 transfection in SUM 1315; assay type: cell-based, human
# Experimental: Cell Culture, Transfection, and Stable Cell Line Production. SUM 1315 breast cancer cells were obtained from ATCC (Manassas, VA). Cells were maintained at 37° C., 5% CO2, and 90% humidity in a tissue culture incubator. Media for SUM 1315 cells consisted of a 50-50 mixture of DMEM and F12 media, supplemented with 5 μg/ml insulin, 10 ng/ml EGF, 5% fetal bovine serum, and 1% penicillin/streptomycin. Cells were passaged using 0.25% trypsin (Genesee Scientific, San Diego, CA) every 2-3 days as they reached confluency. […]
# Quantitative PCR. […] RNA quantity and quality was measured and analyzed (with 260/280 nm and 260/230 nm spectra measurements) using a NanoDrop ND-1000 (Thermo Fisher Scientific, Waltham, MA). […] Quantitative RT-PCR was performed in quadruplicate using Maxima SYBR Green Master Mix (Thermo Fisher Scientific, Waltham, MA) in 25 μl reactions. […] Data were analyzed using Bio-Rad iQ5 software using the 2^−ΔΔ^Ct method and normalized to Actin. […]
# Western Blot. […] Cells were pelleted, lysed in RIPA buffer, and protein concentration was determined using the BCA Assay (Thermo Fisher Scientific, Waltham, MA). […]
# [2] = tested on: Ovcar8-IP tumors; assay: Ovcar8-IP intraperitoneal tumor model in NSG mice, MSN-siRNA with or without cisplatin; assay type: in vivo; details: siRNA alone, without cisplatin
# Experimental: Animal Studies. The animal studies conducted in these experiments were done in accordance with a protocol approved by the Institutional Animal Care and Use Committee at the City of Hope Beckman Research Institute. A total of 48 female NOD.Cg-Prkdc^scidIl2rg^tm1Wj1/SzJ (NSG) mice (The Jackson Laboratory, Bar Harbor, ME) were used. Ten week old (on average) mice were administered an intraperitoneal injection (IP) of 2.5×10^6 Ovcar8-IP cells in 200 μl of RPMI media. For all studies, mice were placed into four groups: MSN-siQ, MSN-siQ+cisplatin, MSN-si419H, and MSN-si419H+cisplatin (n=4 or n=8). Previous reports show no cellular uptake without MSNs^14, thus a siRNA-only group was not added to this study.
# Bioluminescent imaging of mice (using Xenogen IVIS 100 biophotonic imaging system, STTARR, Toronto, Ontario, Canada) commenced seven days after injection of tumor cells in order to ensure engraftment, and continued once a week for four weeks. Mice were given a 100 μl IP injection of 20 mg/ml D-Luciferin (PerkinElmer, Waltham, MA). Ten minutes after the D-luciferin injection, mice were anesthetized with isoflurane (2%-5%) and placed in the biophotonic imager, and images were taken within two minutes. An alfalfa-free version of the regular rodent diet (alfalfa-free CA-1) was administered to the siQ mice to prevent autofluorescence from the regular diet.
# IP injections of MSN+siRNA (siQ fluorescently labeled with ALEXAFLUOR® 647 or si419H) were conducted one week after the inoculation of Ovcar8-IP cells and done once or twice per week for a total of four weeks. Mice received 105 μl of 500 ng/μl MSN complexed with 15 μl of 10 μM siRNA per week, divided into one full or two half doses (n=4 and n=8, respectively). This is equivalent to […] MSN/week. Weekly 3 mg/kg IP cisplatin injections were given starting two weeks after initial inoculation of cells.
# At completion of the experiment, all animals were euthanized via CO2 asphyxiation. […]
# Statistics. All in vivo data was analyzed using one-way ANOVA with correction for multiple comparisons, comparing all groups to MSN-siQ treatment group. […]
substance,measurement,setting,value
"si419: anti-TWIST siRNA; passenger 5′-GGACAAGCUGAGCAAGAUU-3′ (SEQ ID No: 1), guide 5′-AAUCUUGCUCAGCUUGUCCUU-3′ (SEQ ID No: 2) (listed as RNA, chemistry not fully specified)",TWIST1 knockdown (protein and mRNA),[1],knockdown of TWIST1
same,change in tumor weight,[2],did not produce a statistically significant change in tumor weight
